For 41 compounds, IC50 results are on record in patent US10640495B2, “Heterocycle derivatives having TrkA inhibitory activity” (Shionogi & Co., Ltd., priority 2015, dated 2020).

Chain of human TrkA (P04629 440-796): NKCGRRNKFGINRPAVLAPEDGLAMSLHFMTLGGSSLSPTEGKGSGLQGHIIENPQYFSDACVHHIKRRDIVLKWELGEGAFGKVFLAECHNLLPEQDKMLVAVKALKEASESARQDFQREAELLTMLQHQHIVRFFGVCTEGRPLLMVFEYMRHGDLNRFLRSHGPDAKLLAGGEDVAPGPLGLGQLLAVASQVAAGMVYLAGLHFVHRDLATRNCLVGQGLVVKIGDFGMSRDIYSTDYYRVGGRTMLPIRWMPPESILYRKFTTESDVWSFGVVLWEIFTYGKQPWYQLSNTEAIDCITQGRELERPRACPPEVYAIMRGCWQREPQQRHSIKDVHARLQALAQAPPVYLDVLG

The first assay addresses human TrkA (Homo sapiens (Human), UniProt P04629). The assay is described as follows: Human TrkA inhibition assay (Test Example 2). In kind it is biochemical. The note with it: Table 152, human TrkA inhibition; read-out: IC50_nM. As for the experimental part:
Seven point five μL per well of human TrkA (PV3144, Lifetechnologies, final concentration: 1 nmol/L) suspended in the assay buffer (100 mmol/L 4-(2-hydroxyethyl)-1-piperazineethanesulfonic acid (HEPES), 10 mmol/L magnecium chloride, 0.003 vol % Brij-35, 0.004 vol % Tween20 and 1 mmol/L dithiothreitol (DTT)) was applied in a 384 well plate and the plate was pre-incubated for 15 min at room temperature with 0.4 μL of each compound (final concentration: 200 μmol/L-1 pmol/L) dissolved in DMSO. Then, fluorescent substrate (FL-peptide 27, 760424, PerkinElmer, final concentration: 1.5 μmol/L) and ATP (final concentration 500 μmol/L) dissolved in the assay buffer was added in each well. After the incubation of 120 min at 37° C., fifteen μL of termination buffer (100 mmol/L HEPES, 40 mmol/L ethylenediaminetetraacetic acid (EDTA), 10 mmol/L magnecium chloride, 0.003 vol % Brij-35, 0.004 vol % Tween20, 1 mmol/L DTT and 0.16 vol % Coating Reagent 3) was added in each well to stop the enzyme reaction. Fluorescent intensities (FI) of phosphorylated and non-phosphorylated fluorescent substrates were measured by LabChip EZReader II (Caliper LifeSciences, Inc.), and conversion ratio (CR) was calculated by the following formula-1. The CR in the well applied with DMSO alone was used as a negative control and the CR in the well without applying TrkA was used as a positive control. The inhibitory effect of each compound on TrkA phosphorylation was calculated by the following formula-2. CR (%)=(FI of phosphorylated substrate/(FI of phosphorylated substrate+FI of non-phosphorylated substrate))×100 (Formula-1) Phosphorylation inhibition (%)=(1−(CR with compound treatment−CR of positive control)/(CR of negative control−CR of positive control))×100 (Formula-2)
IC50 values (nmol/L) were determined by the logistic regression using the inhibition data in 10 points of 3-fold dilution series at a compound concentration range of 20 nmol/L to 1 pmol/L, or 10 points of 3-fold dilution series at the range of 2 μmol/L to 0.1 nmol/L, or 10 points of 3-fold dilution series at the range of 200 μmol/L to 10 nmol/L, or 15 points of 3-fold dilution series at the range of 200 μmol/L to 0.04 nmol/L.
The evaluation results of the compounds in the present invention are indicated as follows. IC50 values of 0 to 100 nM, 100 to 1000 nM and over 1000 nM were shown as “A”, “B” and “C”, respectively.
Take `COCCN1C[C@@H](NC(=O)Nc2c(C)c(-c3cnc4ncnn4c3)nn2-c2ccccc2)[C@H](c2ccc(F)c(F)c2)O1` (racemic) [Compound I-44]: the IC50 is less than 100 nM.

Staying with this assay, now noted: Table 153, human TrkA inhibition; read-out: IC50.
On to `COCCN1C[C@@H](NC(=O)Nc2c(C)c(-c3cnc(C)nc3)nn2-c2ccccc2)[C@H](c2ccc(F)cc2)O1` (racemic) [Compound I-117], for which the IC50 was less than 100 nM.

As for `COCCNC(=O)c1ncc(-c2nn(-c3ccccc3)c(NC(=O)N[C@@H]3CN(CCOC)O[C@H]3c3ccnc(F)c3)c2C)cc1C` (racemic) [Compound I-173], the IC50 is less than 100 nM. Take `CNC(=O)c1cc(-c2nn(-c3ccccc3)c(NC(=O)N[C@@H]3CN(Cc4ccco4)O[C@H]3c3ccc(F)c(F)c3)c2C)cn(C)c1=O` (racemic) [Compound I-149]: the IC50 was less than 100 nM. On the same count and under the same terms, under `COCCN1C[C@@H](NC(=O)Nc2c(C)c(-c3cnc(OC)c(C(N)=O)c3)nn2-c2ccccc2)[C@H](c2cnc(F)c(F)c2)O1` (racemic) [Compound I-101] stands less than 100 nM.

For the compound `COCCN1C[C@@H](NC(=O)Nc2c(C)c(-c3cc(C(N)=O)c(=O)n(C)c3)nn2-c2ccccc2)[C@H](c2ccnc(F)c2)O1` (racemic) [Compound I-105], the IC50 is less than 100 nM.

Regarding `COCCN1C[C@@H](NC(=O)Nc2c(C)c(-c3cnc4c(c3)nnn4C)nn2-c2ccccc2)[C@H](c2ccc(F)cc2)O1` (racemic) [Compound I-118], the IC50 is less than 100 nM. For `COCCN1C[C@@H](NC(=O)Nc2c(C)c(-c3cccc(C(=O)O)c3)nn2-c2ccccc2)[C@H](c2ccc(F)c(F)c2)O1` (racemic) [Compound I-51], the IC50 was less than 100 nM. On the same count and under the same terms, the same measure for `COCCN1C[C@@H](NC(=O)Nc2c(C)c(-c3cnc4c(c3)nnn4C)nn2-c2ccccc2)[C@H](c2ccccc2)O1` (racemic) [Compound I-162]: less than 100 nM.

In the case of `CNC(=O)c1cc(-c2cc(NC(=O)N[C@@H]3CN(CCOC)O[C@H]3c3ccnc(F)c3)n(C)n2)cnc1OC` (racemic) [Compound I-95], the IC50 is more than 1000 nM.

The assay is the same for the next values; noted with them: Table 154, human TrkA inhibition; read-out: IC50.
For the compound `COCCN1C[C@@H](NC(=O)Nc2c(C)c(-c3cnc4c(c3)nc(C(N)=O)n4C)nn2-c2ccccc2)[C@H](c2ccnc(F)c2)O1` (racemic) [Compound I-219], the IC50 is less than 100 nM. Turning to `COCCN1C[C@@H](NC(=O)Nc2c(C)c(-c3cnc(S(C)(=O)=O)nc3)nn2-c2ccccc2)[C@H](c2ccnc(F)c2)O1` (racemic) [Compound I-270], the IC50 was less than 100 nM.

`COCCN1C[C@@H](NC(=O)Nc2c(C)c(-c3cnc4nn(CC(F)(F)F)cc4c3)nn2-c2ccccc2)[C@H](c2ccnc(F)c2)O1` (racemic) [Compound I-243]: the IC50 was less than 100 nM.

`CCOc1ncc(-c2nn(-c3ccccc3)c(NC(=O)N[C@@H]3CN(CCOC)O[C@H]3c3ccnc(F)c3)c2C)cn1` (racemic) [Compound I-196]: the IC50 is less than 100 nM. Still for that read-out and setting: under `COCC[C@@H]1C[C@@H](NC(=O)Nc2c(C)c(-c3cc(C)c(=O)n(C)c3)nn2-c2ccccc2)[C@H](c2ccnc(F)c2)O1` [Compound I-288] stands less than 100 nM; under `Cc1c(-c2cnc3c(cnn3C)c2)nn(-c2ccccc2)c1NC(=O)N[C@@H]1CN(Cc2ccn[nH]2)O[C@H]1c1ccc(F)c(F)c1` (racemic) [Compound I-203], 100 to 1000 nM; under `CNC(=O)c1nc2cc(-c3nn(-c4ccccc4)c(NC(=O)N[C@@H]4CN(CCOC)O[C@H]4c4ccnc(F)c4)c3C)cnc2n1C` (racemic) [Compound I-224], less than 100 nM. On to `COCCN1C[C@@H](NC(=O)Nc2c(C)c(-c3cnc(C(N)=O)c(F)c3)nn2-c2ccccc2)[C@H](c2ccnc(F)c2)O1` (racemic) [Compound I-255], for which the IC50 was less than 100 nM. The same measure, in the same setting: under `COCCN1C[C@@H](NC(=O)Nc2c(C)c(-c3ccnc(C(=O)O)c3)nn2-c2ccccc2)[C@H](c2cnc(F)c(F)c2)O1` [Compound I-213] stands less than 100 nM.

The assay is the same for the next values; noted with them: Table 155, human TrkA inhibition; read-out: IC50.
In the case of `COCCN1C[C@@H](NC(=O)Nc2c(C)c(-c3cnc(N4CCN(C)CC4)nc3)nn2-c2ccccc2)[C@H](c2ccnc(F)c2)O1` (racemic) [Compound I-379], the IC50 is less than 100 nM. Same read-out and setting: under `COCCN1C[C@@H](NC(=O)Nc2c(C)c(C3=CC(=O)N(C)C(C)(C)C3)nn2-c2ccccc2)[C@H](c2ccnc(F)c2)O1` (racemic) [Compound I-397] stands less than 100 nM. Still for that read-out and setting: under `COCCN1C[C@@H](NC(=O)Nc2c(C)c(-c3ccn(C)c(=O)c3)nn2-c2ccccc2)[C@H](c2ccnc(F)c2)O1` (racemic) [Compound I-495] stands less than 100 nM.

As for `COCCN1C[C@@H](NC(=O)Nc2c(C)c(-c3cccc(CN=S(C)(C)=O)c3)nn2-c2ccccc2)[C@H](c2ccc(F)c(F)c2)O1` [Compound I-333], the IC50 was less than 100 nM. Same read-out and setting: under `COCCN1C[C@@H](NC(=O)Nc2c(C)c(-c3cnc(N4C[C@H]5COC[C@@H](C4)N5C)nc3)nn2-c2ccccc2)[C@H](c2ccnc(F)c2)O1` (racemic) [Compound I-422] stands less than 100 nM; under `COCCN1C[C@@H](NC(=O)Nc2c(C)c(-c3cnn(C)c3)nn2Cc2ccccc2)[C@H](c2ccc(F)c(F)c2)O1` [Compound I-492], more than 1000 nM. Regarding `COCCN1C[C@@H](NC(=O)Nc2c(C)c(-c3cnc4c(c3)c(CO)nn4C)nn2-c2ccccc2)[C@H](c2ccnc(F)c2)O1` (racemic) [Compound I-434], the IC50 was less than 100 nM.

The same assay, now with this note: Table 156, human TrkA inhibition; read-out: IC50.
Regarding `COc1ncc(-c2nn(-c3ccccc3)c(NC(=O)N[C@@H]3CN(C(C)C)O[C@H]3c3ccc(F)c(F)c3)c2C)cn1` (racemic) [Compound I-527], the IC50 was less than 100 nM. On the same count and under the same terms, under `COCCN1C[C@@H](NC(=O)Nc2c(C)c(OCC3CNCCO3)nn2-c2ccccc2)[C@H](c2ccc(F)c(F)c2)O1` (single isomer, unassigned) [Compound I-575] stands less than 100 nM; under `CCOc1nn(-c2ccccc2)c(NC(=O)N[C@@H]2CN(CCOC)O[C@H]2c2ccnc(F)c2)c1C` (racemic) [Compound I-523], less than 100 nM. Same read-out and setting: under `CNC(=O)c1cc(-c2nn(-c3ccccc3)c(NC(=O)N[C@@H]3CN(CC(F)F)O[C@H]3c3ccc(F)c(F)c3)c2C)cnc1OC` (racemic) [Compound I-551] stands less than 100 nM.

The same assay, now with this note: Table 157, human TrkA inhibition; read-out: IC50.
For `CCN1C[C@@H](NC(=O)Nc2c(C)c(OCC3CNC3)nn2-c2ccccc2)[C@H](c2ccc(F)c(F)c2)O1` (racemic) [Compound I-657], the IC50 is less than 100 nM. Same read-out and setting: under `COCCN1C[C@@H](NC(=O)Nc2c(C)c(-c3cnc(N4CC[C@H](OC)C4)nc3)nn2-c2ccccc2)[C@H](c2ccnc(F)c2)O1` [Compound I-584] stands less than 100 nM; under `CCN1C[C@@H](NC(=O)Nc2c(C)c(-c3cnc(C(=O)NC)c(F)c3)nn2-c2ccccc2)[C@H](c2ccc(F)c(F)c2)O1` (racemic) [Compound I-613], less than 100 nM; under `COCCN1C[C@@H](NC(=O)Nc2c(C)c(CO)nn2-c2ccccc2)[C@H](c2ccc(F)c(F)c2)O1` [Compound I-619], less than 100 nM. The same measure, in the same setting: the same measure for `CCN1CCC(COc2nn(-c3ccccc3)c(NC(=O)N[C@@H]3CN(CC)O[C@H]3c3ccc(F)c(F)c3)c2C)CC1` (racemic) [Compound I-609]: less than 100 nM; for `CCN1C[C@@H](NC(=O)Nc2c(C)c(OCCCCN(C)C)nn2-c2ccccc2)[C@H](c2ccc(F)c(F)c2)O1` (racemic) [Compound I-662]: less than 100 nM.

The same assay, now with this note: human TrkA 1 nmol/L, ATP 500 μmol/L, 120 min at 37° C.; read-out: IC50 values (TrkA phosphorylation inhibition).
On to `COCCN1C[C@@H](NC(=O)Nc2c(C)c(-c3cnc4c(c3)CC(=O)N4C)nn2-c2ccccc2)[C@H](c2ccnc(F)c2)O1` (racemic) [Compound I-291], for which the IC50 worked out at 2 nM. Same read-out and setting: the same measure for `CNc1ncc(-c2nn(-c3ccccc3)c(NC(=O)N[C@@H]3CN(CCOC)O[C@H]3c3cnc(F)c(F)c3)c2C)cn1` [Compound I-135]: 0.52 nM; for `COCCN1C[C@@H](NC(=O)Nc2c(C)c(-c3cnc4c(cnn4C)c3)nn2-c2ccccc2)[C@H](c2ccnc(F)c2)O1` [Compound I-65]: 0.92 nM; for `COCCN1C[C@@H](NC(=O)Nc2c(C)c(-c3ccnc(C(=O)NOC)c3)nn2-c2ccccc2)[C@H](c2cnc(F)c(F)c2)O1` [Compound I-233]: 1.5 nM. The same measure, in the same setting: under `COCCN1C[C@@H](NC(=O)Nc2c(C)c(-c3ccnc(C(=O)O)c3)nn2-c2ccccc2)[C@H](c2ccc(F)c(F)c2)O1` (racemic) [Compound I-190] stands 2.1 nM.
